Patent US6342490B1, “Pharmaceutical composition containing uscharidin or its analogues” (Phyto Corporation Limited, priority 1997, dated 2002)

Assays:
[1] = test system: cancer cell lines; experiment: NCI in vitro cell screening (SRB, dose-response); format: cell-based; settings: NCI panel, 48 hours
From the text: Uscharin was obtained as in Example 2 and was subjected to in vitro cell screening at the National Cancer Institute (NCI), USA in respect of a panel of cancel cell types organised into subpanels representing leukemia, lung cancers, colon cancer, cancer of the central nervous system, melanoma, ovarian cancer, renal cancer, and in some cases prostate cancer and breast cancer also.
The standard NCI methodology which was employed is described in Michael R Boyd, Principles and Practices of Oncology, Vol, 3, No. 10 (October 1989) and Monks A. et al., Journal of the National Cancer Institute, Vol. 83, No. 11, (Jun. 5, 1991).
The Dose-Response Curve is created by plotting the Calculated Percent Growth (PG) of each cell line against the log(10) of the corresponding drug concentration. The cell line curves are grouped by cell type, or subpanel. Mean Log(10) concentrations for all cell lines tested are calculated at three points: where the test compound achieved 50% inhibition of cell growth (GI50), where the test compound achieved 0% cell growth or total growth inhibition (TGI), and where the test compound achiveved 50% cell kill or 50% lethal concentration (LC50). Reference lines are shown at the percent growth values of +50 (GI50), 0 (TGI) and −50 (LC50).
Percentage Growth (PG)—of the compound on a cell line is currently calculated according to one of the following expressions:
If (Mean OD(test)−Mean OD(tzero)>=0,
PG=100×(Mean OD(test)−Mean OD(tzero)/(mean OD(ctrl)−Mean OD(tzero)
If (Mean OD(test−Mean OD(tzero)<0,
PG=100×(Mean OD(test)−Mean OD(tzero)/Mean OD(tzero)
Mean OD (tzero)=The average of optical density measurements of SRB-derived colour just before exposure of cells to the test compound.
Mean OD (test)=The average of optical density measurements of SRB-derived colour after 48 hours […] of cells to the test compound.
Mean OD (ctrl)=The average of optical density measurements of SRB-derived colour after 48 hours […] of cells to the test compound.

[2] = test system: SCC-1 cells; experiment: Nude mice injected with SCC-1 human tumour cells, drug treatment; format: in vivo, mice (BALB/c nude); settings: nude mice with SCC-1 cells; versus control
Description: The SCCI cells (human tumour cell line) where grown (1×10^5/ml seeding density) in 25 ml RPMI 1640 (10% foetal calf serum, 5% glutamine) in 75 cm^2 tissue culture flasks. The cells were harvested at log growth phase (5 days approximately) and washed once in saline before injection into the mice.
The “nude” mice (BALB/c nude) are reared and contained within a sealed isolator. The mice were injected with 1×10^7 cells subcut on the back, right hand side near the shoulder blades. After 7 days the mice were split randomly into the study groups (10-15 animals per group). Each was then treated with a different regime, the variable being time between injections and dose of drug at each injection, control groups were also included in the overall plan of the experiement.
During the trial a daily check was made on the animals and any animal removed if the tumour size became too large (>5-7% total body weight) or if the animal is showing signs of distress. Additional to this the tumour should be assessed every 3-4 days by an independent observer and the result recorded. Once an animal is removed from the study the tumour size, volume and weight was determined and the tumour stored for further cytological study. The reason for the animals removal from the study was also recorded, if this was not due to tumour size. […]

[3] = test system: tumour; settings: cited from earlier work
[4] = test system: primate tumour cells; settings: cited from earlier work

| SMILES | inhibitory effect on the growth of cancer cell lines in vitro [1] | reduction in percentage mortality due to the cancer cells [2] | in vivo tumour-inhibiting activity [3] | cytotoxic activity against primate tumour cells [4] |
| --- | --- | --- | --- | --- |
| C[C@@H]1CC(=O)[C@]2(O)O[C@@H]3C[C@@]4(C=O)[C@@H](CC[C@@H]5[C@@H]4CC[C@]4(C)[C@@H](C6=CC(=O)OC6)CC[C@]54O)C[C@H]3O[C@@H]2O1 [Uscharidin, uscharidin] | inhibitory effect | – | – | – |
| C[C@@H]1C[C@@]2(N=CCS2)[C@]2(O)O[C@@H]3C[C@@]4(C=O)[C@@H](CC[C@@H]5[C@@H]4CC[C@]4(C)[C@@H](C6=CC(=O)OC6)CC[C@]54O)C[C@H]3O[C@@H]2O1 [Uscharin, uscharin] | inhibitory effect | up to 45% | – | – |
| C[C@H]1O[C@H]2O[C@@H]3C[C@@H]4CC[C@@H]5C(CC[C@]6(C)[C@@H](C7=CC(=O)OC7)CC[C@]56O)[C@@]4(C=O)C[C@H]3O[C@@]2(O)[C@H](O)[C@@H]1O (stereo partly shown) [calotoxin] | inhibitory effect | – | – | – |
| C[C@@H]1C[C@H](O)[C@]2(O)O[C@@H]3C[C@@]4(C=O)[C@@H](CC[C@@H]5[C@@H]4CC[C@]4(C)[C@@H](C6=CC(=O)OC6)CC[C@]54O)C[C@H]3O[C@@H]2O1 [calotropin] | – | – | no in vivo tumour-inhibiting activity | – |
| C[C@]12CC[C@H](O)C[C@@H]1CC[C@@H]1[C@@H]2CC[C@]2(C)[C@@H](C3=CC(=O)OC3)CC[C@]12O [uzarigenin] | – | – | no in vivo tumour-inhibiting activity | cytotoxic activity |
